Experimental data reported in patent publication US20240239801A1, “PYRIMIDO[5,4,D]PYRIMIDINE COMPOUNDS, COMPOSITIONS COMPRISING THEM AND USES THEREOF” (Université de Montréal, priority 2021, published 2024).
Read-outs that look alike come from different tables or passages of the source.

Experiments:
Assay in all cases: Proliferation inhibition, CellTiter-Glo
Assay type in all cases: cell-based, human
SK-MEL30 = conditions: Table D-1, 3 days, read-out: SK-MEL30 Prolif. EC50
Protocol: (§1) All cancer cell lines (A375, A101D, A2058, RKO, HT29 SK-MEL 30, IPC298, HepG2, HCT-116, Lovo, SW620, SW480, NCI-H358, NCI-H2122, Calu-6, NCIH2087, NCIH1755, NCIH1666 and Mewo) were obtained from ATCC and cultured in RPMI-1640 medium (Gibco) supplemented with 5% heat inactivated fetal bovine serum (FBS, Wisent) at 37° C. under 5% CO2. Cells were maintained in T175 flasks (Greiner). They were passaged by removing the culture medium, washing once in 10 mL of room temperature Phosphate Buffered Saline (PBS; Wisent) and incubating at 37° C. with 2 mL of 0.05% Trypsin (Thermo-Fisher). Trypsin was then inactivated by adding complete growth medium and the cells were then replated in a T175 culture dish at the appropriate dilution. All cell lines were routinely tested for mycoplasma contamination. Tissue type and mutational status of each cell line can be found in Table B.
(§2) CellTiter-Glo® viability analysis was conducted on cells plated in […] of complete RPMI-1640 growth medium in 96-well flat-bottomed white opaque plates (Greiner or Corning) at a density indicated in Table E (for each CCL, number of cells plated per well of a 96-well plate to perform the CellTiter-Glo® cell viability assay). The cell density in cells/cm^2 would correspond to cell number divided by the area of one well of a 96-well plate (0.32 cm^2). Cells were maintained overnight at 37° C. under 5% CO2 before treatment with compounds' dilution series for 3 days.
(§3) In a dilution series 100 μL/well of test substance dilution prepared in complete RPMI-1640 growth media was added to the cells plated initially in 100 μL of growth media. The dilution series is selected so that ten concentrations cover a range from 30 μM or 10 μM to […]. If necessary (as in the case of A375 cells, which were more sensitive to the compounds) the initial concentration of 10 μM is lowered to 1 μM and further dilution is carried out accordingly. The final concentration of DMSO in the assay is set to 0.5%.
(§4) After 3 days of incubation, the growth media were removed by aspiration and 60 μL of diluted CellTiter-Glo® reagent (10 μL CellTiter-Glo® reagent+50 μL of PBS) was added to each well. Cells were allowed to lyse and to equilibrate in CellTiter-Glo® reagent by 5 min incubation on a plate shaker followed by 10 min incubation at room temperature. Luminescence signals were then acquired on a Synergy Neo2 plate reader (Biotek).
(§5) The effect of each compound dilution on the proliferation of cancer cell lines was expressed in % inhibition and calculated as follows. An internal 100% inhibition control (1 μM of trametinib; cat. No. HY-10999; MedChem Express; CAS No. 871700-17-3) was included in each plate and used as a measure of CellTiter-Glo® signal background. The value obtained for trametinib was subtracted from each data point. The average of DMSO (vehicle) controls (set as 0% inhibition) was established and used to calculate % inhibition:
(§6) The ability of each compound to inhibit proliferation was expressed as a EC50 value obtained by plotting the effect values for each data point of a dilution series and fitting the obtained curves using a log(agonist) versus response−variable slope (four parameters) function using GraphPadPrism (V7.0) or Dotmatics Screening Ultra platform.

IPC298 = conditions: Table D-1, 3 days, read-out: IPC298 Prolif. EC50
Protocol: as §1, §2, §3, §4, §5, §6

Mewo = conditions: Table D-2, 3 days, read-out: Mewo Prolif. EC50
Protocol: as §1, §2, §3, §4, §5, §6

RKO = conditions: Table D-1, 3 days, read-out: RKO Prolif. EC50
Protocol: as §1, §2, §3, §4, §5, §6

NCI-H2122 = conditions: Table D-2, 3 days, read-out: NCI-H2122 Prolif. EC50
Protocol: as §1, §2, §3, §4, §5, §6

HCT116 = conditions: Table D-1, 3 days, read-out: HCT116 Prolif. EC50
Protocol: as §1, §2, §3, §4, §5, §6

SW480 = conditions: Table D-2, 3 days, read-out: SW480 Prolif. EC50
Protocol: as §1, §2, §3, §4, §5, §6

Calu6 = conditions: Table D-2, 3 days, read-out: Calu6 Prolif. EC50
Protocol: as §1, §2, §3, §4, §5, §6

A375 = conditions: Table D-1, 3 days, read-out: A375 Prolif. EC50
Protocol: as §1, §2, §3, §4, §5, §6

NCIH1755 = conditions: Table D-2, 3 days, read-out: NCIH1755 Prolif. EC50
Protocol: as §1, §2, §3, §4, §5, §6

HepG2 = conditions: Table D-1, 3 days, read-out: HepG2 Prolif. EC50
Protocol: as §1, §2, §3, §4, §5, §6

NCI-H358 = conditions: Table D-2, 3 days, read-out: NCI-H358 Prolif. EC50
Protocol: as §1, §2, §3, §4, §5, §6

NCIH2087 = conditions: Table D-2, 3 days, read-out: NCIH2087 Prolif. EC50
Protocol: as §1, §2, §3, §4, §5, §6

Lovo = conditions: Table D-2, 3 days, read-out: Lovo Prolif. EC50
Protocol: as §1, §2, §3, §4, §5, §6

SW620 = conditions: Table D-2, 3 days, read-out: SW620 Prolif. EC50
Protocol: as §1, §2, §3, §4, §5, §6

HT-29 = conditions: Table D-1, 3 days, read-out: HT-29 Prolif. EC50
Protocol: as §1, §2, §3, §4, §5, §6

A2058 = conditions: Table D-1, 3 days, read-out: A2058 Prolif. EC50
Protocol: as §1, §2, §3, §4, §5, §6

A101D = conditions: Table D-1, 3 days, read-out: A101D Prolif. EC50
Protocol: as §1, §2, §3, §4, §5, §6

Row | EC50 (SK-MEL30; Homo sapiens, SK-MEL-30, 72 h) [nM] | EC50 (SK-MEL30) [nM] | EC50 (NCI-H2122) [nM] | EC50 (HCT116) [nM] | EC50 (SW480) [nM] | EC50 (Calu6) [nM] | EC50 (A375) [nM] | EC50 (HepG2) [nM] | EC50 (NCI-H358) [nM] | EC50 (Lovo) [nM] | EC50 (SW620) [nM] | EC50 (HT-29) [nM] | Structure (SMILES) | EC50 (IPC298; Homo sapiens, IPC-298, 72 h) [nM] | EC50 (Mewo; Homo sapiens, MeWo, 72 h) [nM] | EC50 (RKO; Homo sapiens, RKO, 72 h) [nM] | EC50 (Mewo) [nM] | EC50 (RKO) [nM] | EC50 (A2058) [nM] | EC50 (NCIH2087) [nM] | EC50 (A101D) [nM] | other results
1 | < 300 | – | – | – | – | – | – | – | – | – | – | – | Cc1ccc2c(Nc3cccc(Cl)c3F)nccc2c1NC(=O)c1csc2c(N)ncnc12 [Belvarafenib, reference compound] | < 300 | 300 to 3000 | < 300 | – | – | – | – | – | EC50 (NCI-H2122; Homo sapiens, NCI-H2122, 72 h): 300 to 3000 nM; EC50 (HCT116; Homo sapiens, HCT-116, 72 h): 300 to 3000 nM; EC50 (SW480; Homo sapiens, SW480, 72 h): 300 to 3000 nM; EC50 (Calu6; Homo sapiens, Calu-6, 72 h): < 300 nM; EC50 (A375; Homo sapiens, A-375, 72 h): < 300 nM; EC50 (NCIH1755; Homo sapiens, NCI-H1755, 72 h): > 3000 nM; EC50 (HepG2; Homo sapiens, HepG2, 72 h): < 300 nM; EC50 (NCI-H358; Homo sapiens, NCI-H358, 72 h): 300 to 3000 nM; EC50 (NCIH2087; Homo sapiens, NCI-H2087, 72 h): < 300 nM; EC50 (Lovo; Homo sapiens, LoVo, 72 h): < 300 nM; EC50 (SW620; Homo sapiens, SW-620, 72 h): 300 to 3000 nM; EC50 (HT-29; Homo sapiens, HT-29, 72 h): < 300 nM
2 | – | < 300 | 300 to 3000 | < 300 | 300 to 3000 | < 300 | < 300 | < 300 | < 300 | < 300 | 300 to 3000 | < 300 | Cc1c(F)cccc1S(=O)(=O)Nc1ccc(F)c(Nc2ncnc3cnc(-n4cc(C(=O)N(C)Cc5ccncc5)c5ccccc54)nc23)c1F [Example 98] | – | – | – | < 300 | < 300 | < 300 | < 300 | < 300 | EC50 (IPC298): < 300 nM; EC50 (NCIH1755): < 300 nM
3 | – | < 300 | 300 to 3000 | 300 to 3000 | 300 to 3000 | 300 to 3000 | < 300 | < 300 | < 300 | < 300 | 300 to 3000 | < 300 | COc1ccc(S(=O)(=O)Nc2ccc(F)c(Nc3ncnc4cnc(-n5cnc6c(N)cccc65)nc34)c2F)c(C)c1Cl [Example 112] | – | – | – | 300 to 3000 | < 300 | < 300 | 300 to 3000 | < 300 | –
4 | 300 to 3000 | – | – | – | – | – | – | – | – | – | – | – | Cc1c(F)cccc1S(=O)(=O)Nc1ccc(F)c(Nc2ncnc3cnc(-n4cnc5c(-c6cccnc6)cccc54)nc23)c1F [Example 114] | < 300 | 300 to 3000 | < 300 | – | – | – | – | – | EC50 (NCI-H2122; Homo sapiens, NCI-H2122, 72 h): > 3000 nM; EC50 (HCT116; Homo sapiens, HCT-116, 72 h): 300 to 3000 nM; EC50 (A2058; Homo sapiens, A2058, 72 h): < 300 nM; EC50 (SW480; Homo sapiens, SW480, 72 h): > 3000 nM; EC50 (Calu6; Homo sapiens, Calu-6, 72 h): > 3000 nM; EC50 (A375; Homo sapiens, A-375, 72 h): < 300 nM; EC50 (NCIH1755; Homo sapiens, NCI-H1755, 72 h): > 3000 nM; EC50 (HepG2; Homo sapiens, HepG2, 72 h): < 300 nM; EC50 (NCI-H358; Homo sapiens, NCI-H358, 72 h): < 300 nM; EC50 (NCIH2087; Homo sapiens, NCI-H2087, 72 h): 300 to 3000 nM; EC50 (Lovo; Homo sapiens, LoVo, 72 h): < 300 nM; EC50 (SW620; Homo sapiens, SW-620, 72 h): > 3000 nM; EC50 (A101D; Homo sapiens, A101D, 72 h): < 300 nM; EC50 (HT-29; Homo sapiens, HT-29, 72 h): < 300 nM
5 | – | < 300 | 300 to 3000 | 300 to 3000 | 300 to 3000 | 300 to 3000 | < 300 | < 300 | < 300 | < 300 | 300 to 3000 | < 300 | O=S(=O)(Nc1ccc(F)c(Nc2ncnc3cnc(-n4cnc5c(N6CCC7(CCCO7)CC6)cccc54)nc23)c1F)c1cccc(Cl)c1Cl [Example 129] | – | – | – | < 300 | < 300 | < 300 | 300 to 3000 | < 300 | EC50 (IPC298): < 300 nM; EC50 (NCIH1755): 300 to 3000 nM
